Laboratory results from patent publication US9682991B2, “Tricyclic compounds for use as kinase inhibitors” (FUNDACIÓN CENTRO NACIONAL DE INVESTIGACIONES ONCOLOGICAS …, priority 2009, dated 2017).
Where two headings read alike, the source gives them in different places.

Columns and labels:
PIM-2 = PIM-2 (Homo sapiens (Human), UniProt Q9P1W9); assay: PIM-2 biochemical assay (ADP Hunter); settings: semi-quantitative; read-out: PIM2 IC50
Description: The biochemical assay to measure PIM-2 activity relies on the ADP Hunter assay kit (DiscoveRx Corp., Cat. #90-0077), that determines the amount of ADP as direct product of the kinase enzyme activity.

PIM-1 = PIM-1 (Homo sapiens (Human), UniProt P11309); assay: PIM-1 biochemical assay (ADP Hunter)
[1] = read-out: PIM1 IC50, semi-quantitative

Chain of PIM-2 (Q9P1W9 whole entry): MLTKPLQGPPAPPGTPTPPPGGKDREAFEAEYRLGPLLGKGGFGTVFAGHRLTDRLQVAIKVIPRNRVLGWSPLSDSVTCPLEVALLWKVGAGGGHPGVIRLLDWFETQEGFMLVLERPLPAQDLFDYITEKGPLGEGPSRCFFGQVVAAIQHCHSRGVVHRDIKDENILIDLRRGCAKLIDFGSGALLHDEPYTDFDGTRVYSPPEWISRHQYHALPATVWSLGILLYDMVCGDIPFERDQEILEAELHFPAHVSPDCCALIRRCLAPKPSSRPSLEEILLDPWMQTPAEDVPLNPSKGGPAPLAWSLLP
Chain of PIM-1 (P11309 whole entry): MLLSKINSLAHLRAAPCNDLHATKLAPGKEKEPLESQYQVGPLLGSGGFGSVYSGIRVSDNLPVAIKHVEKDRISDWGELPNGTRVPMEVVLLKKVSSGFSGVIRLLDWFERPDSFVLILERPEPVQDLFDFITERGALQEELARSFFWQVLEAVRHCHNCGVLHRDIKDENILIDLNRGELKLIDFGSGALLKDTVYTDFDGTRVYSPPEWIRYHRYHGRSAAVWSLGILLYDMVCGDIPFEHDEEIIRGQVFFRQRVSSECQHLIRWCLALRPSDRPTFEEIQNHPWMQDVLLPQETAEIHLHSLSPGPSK

| SMILES | IC50 (PIM-2) | IC50 (PIM-1) | IC50 (PIM-1; read-out: PIM1 IC50) | IC50 (PIM-1; [1]) |
| --- | --- | --- | --- | --- |
| CN1CCOc2c(NCc3ccc(F)cc3)nn3c(-c4cccc(OC(F)(F)F)c4)nnc3c21 [Example 10, (4-Fluoro-benzyl)-[9-methyl-3-(3-trifluoromethoxy-phenyl)-8,9-dihydro-7H-6-oxa-1,2,3a,4,9-pentaaza-cyclopenta[a]naphthalen-5-yl]-amine] | > 1000 nM |  |  | > 1000 nM |
| CCN1CCOc2c1c(NCC1CC1)nn1c(-c3cccc(OC(F)(F)F)c3)nnc21 [Example 11, Cyclopropylmethyl-[6-ethyl-3-(3-trifluoromethoxy-phenyl)-7,8-dihydro-6H-9-oxa-1,2,3a,4,6-pentaaza-cyclopenta[a]naphthalen-5-yl]-amine] | 100 to 1000 nM |  |  | < 100 nM |
| CCN1CCOc2c(NC3CCOCC3)nn3c(-c4cccc(OC(F)(F)F)c4)nnc3c21 [Example 14, [9-Ethyl-3-(3-trifluoromethoxy-phenyl)-8,9-dihydro-7H-6-oxa-1,2,3a,4,9-pentaaza-cyclopenta[a]naphthalen-5-yl]-(tetrahydro-pyran-4-yl)-amine] | > 1000 nM | 100 to 1000 nM | 583 nM |  |
| COc1ccc(-c2nnc3c4c(c(NCc5ccc(F)cc5)nn23)N(C)CCN4C)cc1 [Example 15, (4-Fluoro-benzyl)-[3-(4-methoxy-phenyl)-6,9-dimethyl-6,7,8,9-tetrahydro-1,2,3a,4,6,9-hexaaza-cyclopenta[a]naphthalen-5-yl]-amine] | > 1000 nM | > 1000 nM | 4350 nM |  |
| CN1CCOc2c1c(N[C@H]1CC[C@H](O)CC1)nn1c(-c3cccc(OC(F)(F)F)c3)nnc21 [Example 19, 4-[6-Methyl-3-(3-trifluoromethoxy-phenyl)-7,8-dihydro-6H-9-oxa-1,2,3a,4,6-pentaaza-cyclopenta[a]naphthalen-5-ylamino]-cyclohexanol] |  |  |  | < 100 nM |
| CN1CCOc2c(NCCCO)nn3c(-c4cccc(OC(F)(F)F)c4)nnc3c21 [Example 22, 3-[9-Methyl-3-(3-trifluoromethoxy-phenyl)-8,9-dihydro-7H-6-oxa-1,2,3a,4,9-pentaaza-cyclopenta[a]naphthalen-5-ylamino]-propan-1-ol] | > 1000 nM | 100 to 1000 nM | 678 nM |  |
| COc1ccc(CNc2nn3c(-c4cccc(OC(F)(F)F)c4)nnc3c3c2N(C)CCO3)cc1OC [Example 24, (3,4-Dimethoxy-benzyl)-[6-methyl-3-(3-trifluoromethoxy-phenyl)-7,8-dihydro-6H-9-oxa-1,2,3a,4,6-pentaaza-cyclopenta[a]naphthalen-5-yl]-amine] | > 1000 nM | 100 to 1000 nM |  |  |
| CN1CCOc2c1c(N(C)[C@H]1CC[C@H](O)CC1)nn1c(-c3cccc(OC(F)(F)F)c3)nnc21 [Example 35, 4-{Methyl-[6-methyl-3-(3-trifluoromethoxy-phenyl)-7,8-dihydro-6H-9-oxa-1,2,3a,4,6-pentaaza-cyclopenta[a]naphthalen-5-yl]-amino}-cyclohexanol] | < 100 nM |  |  | < 100 nM |
| CN1CCOc2c(NCCN3CCNCC3)nn3c(-c4cccc(OC(F)(F)F)c4)nnc3c21 [Example 42, [9-Methyl-3-(3-trifluoromethoxy-phenyl)-8,9-dihydro-7H-6-oxa-1,2,3a,4,9-pentaaza-cyclopenta[a]naphthalen-5-yl]-(2-piperazin-1-yl-ethyl)-amine] |  | 100 to 1000 nM |  |  |
| CNC1CCN(c2nn3c(-c4cccc(OC(F)(F)F)c4)nnc3c3c2OCCN3C)CC1 [Example 44, Methyl-{1-[9-methyl-3-(3-trifluoromethoxy-phenyl)-8,9-dihydro-7H-6-oxa-1,2,3a,4,9-pentaaza-cyclopenta[a]naphthalen-5-yl]-piperidin-4-yl}-amine] | > 1000 nM | 100 to 1000 nM |  |  |
| CN1CCOc2c(N(C)C3CCNCC3)nn3c(-c4cccc(OC(F)(F)F)c4)nnc3c21 [Example 45, Methyl-[9-methyl-3-(3-trifluoromethoxy-phenyl)-8,9-dihydro-7H-6-oxa-1,2,3a,4,9-pentaaza-cyclopenta[a]naphthalen-5-yl]-piperidin-4-yl-amine] | > 1000 nM | 100 to 1000 nM |  |  |
| CN1CCOc2c(N3CCC(N)CC3)nn3c(-c4cccc(OC(F)(F)F)c4)nnc3c21 [Example 46, 1-[9-Methyl-3-(3-trifluoromethoxy-phenyl)-8,9-dihydro-7H-6-oxa-1,2,3a,4,9-pentaaza-cyclopenta[a]naphthalen-5-yl]-piperidin-4-ylamine] | > 1000 nM | 100 to 1000 nM |  |  |
| CC1COc2c(c(N3CCC4(CC3)CC(N)C4)nn3c(-c4cccc(OC(F)(F)F)c4)nnc23)N1C (stereo not shown) [Example 50, 7-[6,7-Dimethyl-3-(3-trifluoromethoxy-phenyl)-7,8-dihydro-6H-9-oxa-1,2,3a,4,6-pentaaza-cyclopenta[a]naphthalen-5-yl]-7-aza-spiro[3.5]non-2-ylamine] |  |  |  | < 100 nM |
| CN(CC1CCNCC1)c1nn2c(-c3cccc(OC(F)(F)F)c3)nnc2c2c1N(C)CCO2 [Example 64, Methyl-[6-methyl-3-(3-trifluoromethoxy-phenyl)-7,8-dihydro-6H-9-oxa-1,2,3a,4,6-pentaaza-cyclopenta[a]naphthalen-5-yl]-piperidin-4-ylmethyl-amine] |  |  |  | < 100 nM |
| CN1CCOc2c1c(N1CCC3(CCCNC3)CC1)nn1c(-c3cccc(OC(F)(F)F)c3)nnc21 [Example 67, 5-(2,9-Diaza-spiro[5.5]undec-9-yl)-6-methyl-3-(3-trifluoromethoxy-phenyl)-7,8-dihydro-6H-9-oxa-1,2,3a,4,6-pentaaza-cyclopenta[a]naphthalene] |  |  |  | < 100 nM |
| CN1CCOc2c1c(N[C@H]1CC[C@@H](N)CC1)nn1c(-c3cccc(OC(F)(F)F)c3)nnc21 [Example 70, N-[6-Methyl-3-(3-trifluoromethoxy-phenyl)-7,8-dihydro-6H-9-oxa-1,2,3a,4,6-pentaaza-cyclopenta[a]naphthalen-5-yl]-cyclohexane-1,4-diamine] |  |  |  | < 100 nM |
| CN1CCOc2c1c(N[C@H]1CC[C@H](N)CC1)nn1c(-c3cccc(OC(F)(F)F)c3)nnc21 [Example 71, N-[6-Methyl-3-(3-trifluoromethoxy-phenyl)-7,8-dihydro-6H-9-oxa-1,2,3a,4,6-pentaaza-cyclopenta[a]naphthalen-5-yl]-cyclohexane-1,4-diamine] |  |  |  | < 100 nM |
| CC(C)NC1CC2(CCN(c3nn4c(-c5cccc(OC(F)(F)F)c5)nnc4c4c3N(C)CCO4)CC2)C1 [Example 87, Isopropyl-{7-[6-methyl-3-(3-trifluoromethoxy-phenyl)-7,8-dihydro-6H-9-oxa-1,2,3a,4,6-pentaaza-cyclopenta[a]naphthalen-5-yl]-7-aza-spiro[3.5]non-2-yl}-amine] |  |  |  | < 100 nM |

Other lines, results leading:

| IC50 (PIM-2) | IC50 (PIM-1) | IC50 (PIM-1; read-out: PIM1 IC50) | IC50 (PIM-1; [1]) | SMILES |
| --- | --- | --- | --- | --- |
| > 1000 nM | 100 to 1000 nM |  |  | COc1ccc(-c2nnc3c4c(c(NCC5CCN(C)CC5)nn23)N(C)CCO4)cc1 [Example 1, [3-(4-Methoxy-phenyl)-6-methyl-7,8-dihydro-6H-9-oxa-1,2,3a,4,6-pentaaza-cyclopenta[a]naphthalen-5-yl]-(1-methyl-piperidin-4-ylmethyl)-amine] |
| > 1000 nM | 100 to 1000 nM |  |  | CN1CCC(Nc2nn3c(-c4cccc(OC(F)(F)F)c4)nnc3c3c2OCCN3C)CC1 [Example 3, (1-Methyl-piperidin-4-yl)-[9-methyl-3-(3-trifluoromethoxy-phenyl)-8,9-dihydro-7H-6-oxa-1,2,3a,4,9-pentaaza-cyclopenta[a]naphthalen-5-yl]-amine] |
| > 1000 nM | 100 to 1000 nM | 811 nM |  | COc1ccc(-c2nnc3c4c(c(NCCN5CCOCC5)nn23)N(C)CCO4)cc1 [Example 4, [3-(4-Methoxy-phenyl)-6-methyl-7,8-dihydro-6H-9-oxa-1,2,3a,4,6-pentaaza-cyclopenta[a]naphthalen-5-yl]-(2-morpholin-4-yl-ethyl)-amine] |
| > 1000 nM | 100 to 1000 nM |  |  | CN1CCOc2c(NCC3CC3)nn3c(-c4cccc(OC(F)(F)F)c4)nnc3c21 [Example 8, Cyclopropylmethyl-[9-methyl-3-(3-trifluoromethoxy-phenyl)-8,9-dihydro-7H-6-oxa-1,2,3a,4,9-pentaaza-cyclopenta[a]naphthalen-5-yl]-amine] |
| > 1000 nM |  |  | > 1000 nM | CN1CCC(CN(C)c2nn3c(-c4cccc(OC(F)(F)F)c4)nnc3c3c2OCCN3C)CC1 [Example 18, Methyl-(1-methyl-piperidin-4-ylmethyl)-[9-methyl-3-(3-trifluoromethoxy-phenyl)-8,9-dihydro-7H-6-oxa-1,2,3a,4,9-pentaaza-cyclopenta[a]naphthalen-5-yl]-amine] |
| > 1000 nM | 100 to 1000 nM |  |  | CN1CCC(CNc2nn3c(-c4ccc5[nH]ccc5c4)nnc3c3c2N(C)CCO3)CC1 [Example 33, [3-(1H-Indol-5-yl)-6-methyl-7,8-dihydro-6H-9-oxa-1,2,3a,4,6-pentaaza-cyclopenta[a]naphthalen-5-yl]-(1-methyl-piperidin-4-ylmethyl)-amine] |
|  | 100 to 1000 nM |  |  | CC1COc2c(NCC3CCN(C)CC3)nn3c(-c4cccc(OC(F)(F)F)c4)nnc3c2N1C (stereo not shown) [Example 38, [8,9-Dimethyl-3-(3-trifluoromethoxy-phenyl)-8,9-dihydro-7H-6-oxa-1,2,3a,4,9-pentaaza-cyclopenta[a]naphthalen-5-yl]-(1-methyl-piperidin-4-ylmethyl)-amine] |
| 100 to 1000 nM |  |  | < 100 nM | CC1COc2c(c(NCC3CCN(C)CC3)nn3c(-c4cccc(OC(F)(F)F)c4)nnc23)N1C (stereo not shown) [Example 39, [6,7-Dimethyl-3-(3-trifluoromethoxy-phenyl)-7,8-dihydro-6H-9-oxa-1,2,3a,4,6-pentaaza-cyclopenta[a]naphthalen-5-yl]-(1-methyl-piperidin-4-ylmethyl)-amine] |
| 100 to 1000 nM |  |  | < 100 nM | CN1CCC(CNc2nn3c(-c4cccc(OC(F)(F)F)c4)nnc3c3c2OCCO3)CC1 [Example 41, (1-Methyl-piperidin-4-ylmethyl)-[3-(3-trifluoromethoxy-phenyl)-7,8-dihydro-6,9-dioxa-1,2,3a,4-tetraaza-cyclopenta[a]naphthalen-5-yl]-amine] |
